Data taken from ChEMBL document CHEMBL4619803, “Stepwise Design of γ-Secretase Modulators with an Advanced Profile by Judicious Coordinated Structural Replacements and an Unconventional Phenyl Ring Bioisostere” (J Med Chem, 2020).
In brackets after ≈: the same amount, converted by molar mass. Several values for one entry are separate records, joined by “and”; a condition that tells them apart may be missing. Equal values may be shown once.

Assays:
[1] = Fraction unbound in mouse plasma; type: ADME, cell-free
Gamma-secretase = test: (§1) Modulation of gamma secretase in human H4 cells over expressing human APP695 harboring K595N/M596L Swedish double mutant assessed as reduction in Abeta42 production after 24 hrs by Alphalisa assay; type: cell-based
[2] = Clearance in mouse hepatocytes assessed per million cells; type: ADME, cell-based, Hepatocyte; conditions: read-out: CLH
[3] = molecular target: Phosphatidylinositol 4-kinase beta (Homo sapiens, UniProt Q9UBF8); test: Binding affinity to PIK4CB (unknown origin); type: ADME
[4] = Octanol/water distribution co-efficient, log D of the compound at pH 7.4; type: physicochemical
[5] = Fraction unbound in human plasma; type: ADME, cell-free
[6] = (§2) Modulation of mouse gamma secretase assessed as reduction in Abeta42 production
[7] = Clearance in human hepatocytes assessed per million cells; type: ADME, cell-based, Hepatocyte; conditions: read-out: CLH
[8] = Solubility of compound by lyophilisation solubility assay; type: physicochemical
Mus musculus [9] = test: In vivo modulation of gamma secretase in APP-Swedish transgenic mouse assessed as reduction in Abeta42 production by measuring remaining Abeta42 level at 3 mg/kg, po measured after 4 hrs by ELISA or AlphaLISA assay relative to control; type: functional
Keratinocyte = test: Phototoxicity in human Keratinocytes in presence of UVA at 320 to 400 nm; type: cell-based; conditions: light or radiation study
[10] = Ratio of IC50 for dark toxicity in human Keratinocytes to IC50 for phototoxicity in human Keratinocytes in presence of UVA at 320 to 400 nm; type: cell-based, Keratinocyte; conditions: read-out: Ratio IC50
[11] = molecular target: Voltage-gated inwardly rectifying potassium channel KCNH2 (Homo sapiens, UniProt Q12809); test: (§3) Inhibition of human ERG
hERG (KCNH2) = hERG (KCNH2) (Homo sapiens, UniProt Q12809); test: as §3; conditions: human
[12] = molecular target: Gamma-secretase (Homo sapiens) (UniProt Q96BI3+Q9NZ42+Q8WW43+P49768+Q92542+P49810); test: as §1; type: cell-based
[13] = Covalent protein binding in human liver microsomes assessed per mg protein in presence of NADPH; type: ADME, Microsome
[14] = Ratio of IC50 for dark toxicity in human Melanocytes to IC50 for phototoxicity in human Melanocytes in presence of UVA at 320 to 400 nm; type: cell-based, Melanocyte; conditions: read-out: Ratio IC50
Mus musculus [15] = species on record: Mus musculus; test: as §2
Mus musculus [16] = test: In vivo modulation of gamma secretase in APP-Swedish transgenic mouse assessed as reduction in Abeta42 production by measuring remaining Abeta42 level at 1 mg/kg, po measured after 4 hrs by ELISA or AlphaLISA assay relative to control; type: functional
Melanocyte = test: Phototoxicity in human Melanocytes in presence of UVA at 320 to 400 nm; type: cell-based; conditions: light or radiation study
Mus musculus [17] = test: In vivo modulation of gamma secretase in APP-Swedish transgenic mouse assessed as reduction in Abeta42 production by measuring remaining Abeta42 level at 10 mg/kg, po measured after 4 hrs by ELISA or AlphaLISA assay relative to control; type: functional
[18] = Mutagenicity in Salmonella typhimurium by Ames test; type: toxicity; conditions: salmonella enterica subsp. enterica serovar typhimurium
[19] = Fraction unbound in rat plasma; type: ADME, cell-free
[20] = Cytotoxicity against human embryonic stem cells assessed as reduction in cell viability; type: cell-based
[21] = Solubility of the compound in fasted state simulated intestinal fluid; type: physicochemical; conditions: simulated gi fluid
[22] = Solubility in fed state simulated intestinal fluids; type: physicochemical; conditions: simulated gi fluid
[23] = Clearance in rat hepatocytes assessed per million cell; type: ADME, cell-based, Hepatocyte; conditions: read-out: CLH
[24] = Thermodynamic solubility of the compound; type: physicochemical

Chain of Voltage-gated inwardly rectifying potassium channel KCNH2 (Q12809 whole entry): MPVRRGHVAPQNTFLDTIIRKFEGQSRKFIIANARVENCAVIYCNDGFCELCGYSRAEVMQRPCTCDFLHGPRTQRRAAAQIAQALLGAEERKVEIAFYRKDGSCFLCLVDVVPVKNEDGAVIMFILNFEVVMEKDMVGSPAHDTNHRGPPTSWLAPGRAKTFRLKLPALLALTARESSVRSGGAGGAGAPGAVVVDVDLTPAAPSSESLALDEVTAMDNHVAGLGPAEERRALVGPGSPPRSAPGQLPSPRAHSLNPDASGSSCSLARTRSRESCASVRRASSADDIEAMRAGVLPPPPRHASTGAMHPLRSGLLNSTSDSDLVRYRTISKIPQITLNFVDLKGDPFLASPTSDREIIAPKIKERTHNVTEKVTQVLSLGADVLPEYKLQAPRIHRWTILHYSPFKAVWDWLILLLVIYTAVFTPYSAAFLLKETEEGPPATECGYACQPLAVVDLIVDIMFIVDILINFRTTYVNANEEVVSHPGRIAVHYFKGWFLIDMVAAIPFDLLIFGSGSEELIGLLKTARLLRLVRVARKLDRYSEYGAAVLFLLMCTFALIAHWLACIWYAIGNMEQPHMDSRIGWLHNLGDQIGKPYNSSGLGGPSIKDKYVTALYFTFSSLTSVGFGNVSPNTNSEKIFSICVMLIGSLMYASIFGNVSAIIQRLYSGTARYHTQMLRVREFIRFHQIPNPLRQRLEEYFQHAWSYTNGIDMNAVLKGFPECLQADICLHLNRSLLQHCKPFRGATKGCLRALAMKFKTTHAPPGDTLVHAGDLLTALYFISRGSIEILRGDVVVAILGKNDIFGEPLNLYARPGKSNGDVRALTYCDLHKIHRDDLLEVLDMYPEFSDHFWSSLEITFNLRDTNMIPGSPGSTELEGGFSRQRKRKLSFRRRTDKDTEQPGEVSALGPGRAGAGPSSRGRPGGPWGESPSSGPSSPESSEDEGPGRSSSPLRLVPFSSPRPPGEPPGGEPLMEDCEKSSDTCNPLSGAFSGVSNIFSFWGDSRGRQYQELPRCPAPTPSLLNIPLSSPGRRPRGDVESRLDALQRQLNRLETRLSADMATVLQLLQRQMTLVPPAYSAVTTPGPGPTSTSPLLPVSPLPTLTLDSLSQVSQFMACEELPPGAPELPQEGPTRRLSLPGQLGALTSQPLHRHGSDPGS
Chain of hERG (KCNH2) (Q12809 whole entry): as above
Chain of Phosphatidylinositol 4-kinase beta (Q9UBF8 whole entry): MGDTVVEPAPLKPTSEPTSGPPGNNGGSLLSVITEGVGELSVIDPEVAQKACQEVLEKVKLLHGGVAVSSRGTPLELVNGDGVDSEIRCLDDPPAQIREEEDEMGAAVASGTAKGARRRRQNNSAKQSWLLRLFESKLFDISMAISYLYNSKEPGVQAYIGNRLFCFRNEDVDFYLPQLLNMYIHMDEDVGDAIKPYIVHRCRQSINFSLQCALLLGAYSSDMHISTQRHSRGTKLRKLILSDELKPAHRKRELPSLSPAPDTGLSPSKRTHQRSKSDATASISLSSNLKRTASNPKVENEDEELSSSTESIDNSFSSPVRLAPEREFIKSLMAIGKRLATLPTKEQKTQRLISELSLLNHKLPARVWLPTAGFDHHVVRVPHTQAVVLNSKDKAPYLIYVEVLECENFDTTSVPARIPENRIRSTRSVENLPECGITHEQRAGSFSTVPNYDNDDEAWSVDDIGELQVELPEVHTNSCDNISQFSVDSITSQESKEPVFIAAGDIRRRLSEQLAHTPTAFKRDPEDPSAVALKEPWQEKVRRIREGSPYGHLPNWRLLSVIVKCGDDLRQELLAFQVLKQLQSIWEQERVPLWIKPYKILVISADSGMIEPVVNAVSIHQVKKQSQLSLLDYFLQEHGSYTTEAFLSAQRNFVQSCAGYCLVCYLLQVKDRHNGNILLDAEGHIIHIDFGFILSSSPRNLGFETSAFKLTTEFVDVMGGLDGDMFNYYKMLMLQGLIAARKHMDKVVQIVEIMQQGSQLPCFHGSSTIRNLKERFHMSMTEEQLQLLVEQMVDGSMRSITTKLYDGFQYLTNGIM

fraction unbound [1]	IC50 (Gamma-secretase) [nM]	hepatocyte CLint [2] [µL/min/1e6 cells]	Kd [3] [nM]	logD [4]	fraction unbound [5]	IC50 [6]	hepatocyte CLint [7] [µL/min/1e6 cells]	solubility [8] [µg/mL]	SMILES	also measured
0.044	27	1.6	> 40000	3.58	0.028	20 nM	1	77 (≈ 152 µM)	Cc1nnc(N2C[C@H]3CC[C@@H](C2)[C@@H]3Nc2nc3c(OC(C)C(F)(F)F)ccc(C(F)(F)F)n3n2)o1 (stereo not given in full)	–
0.02	24	9	250	4.04	0.012	21 nM	1	11 (≈ 22.6 µM)	FC(F)(F)COc1cccn2nc(N[C@@H]3[C@@H]4CC[C@H]3CN(c3ccnc(C(F)(F)F)c3)C4)nc12	–
0.018	4	15	120	3.9 to 3.99	0.017	4 nM	3.3	31 (≈ 70.7 µM)	Cc1cc(N2C[C@H]3CC[C@@H](C2)[C@@H]3Nc2nc3c(OCC(F)(F)F)cccn3n2)sn1	remaining Abeta42 level (% of control) (Mus musculus [9]): >=47 - 50%; IC50 (Keratinocyte): > 137000 nM; selectivity ratio [10]: 1; IC50 [11]: 2900 nM; IC20 (hERG (KCNH2)): 900 nM; fIC50 [12]: 3 nM; PB [13]: 96 pmol; selectivity ratio [14]: 1; fIC50 (Mus musculus [15]): 3 nM; Activity (Mus musculus [16]): 75%; IC50 (Melanocyte): > 137000 nM; remaining Abeta42 level (% of control) (Mus musculus [17]): >50%
0.16	231	27	–	2.59	0.12	–	10	396 (≈ 1070 µM)	COc1cccn2nc(N[C@@H]3[C@@H]4CC[C@H]3CN(c3nc(C)ns3)C4)nc12	–
0.017	21	9.4	23000	3.9	0.028	11 nM	2.3	88 (≈ 182 µM)	Cc1cc(N2C[C@H]3CC[C@@H](C2)[C@@H]3Nc2nc3c(OCC(F)F)ccc(C(F)(F)F)n3n2)ncn1	IC50 (Keratinocyte): 31000 nM; IC50 [11]: 4500 nM; IC20 (hERG (KCNH2)): 1400 nM; Activity [18]: Non-Toxic; fIC50 [12]: 12 nM; fraction unbound [19]: 0.01; Activity [20]: Non-Toxic; solubility [21]: 13 µg/mL (≈ 26.9 µM); fIC50 (Mus musculus [15]): 7 nM; solubility [22]: 466 µg/mL (≈ 964 µM); hepatocyte CLint [23]: 5.8 µL/min/1e6 cells; IC50 (Melanocyte): 31000 nM; Therm solubility [24]: 3 µg/mL
0.095	114	4.6	–	1.79	–	> 400 nM	–	55 to 265 (≈ 130 to 626 µM)	Cc1noc(N2C[C@H]3CC[C@@H](C2)[C@@H]3Nc2nc3c(OCC(F)(F)F)cccn3n2)n1	–
0.0521	14	21	–	3.36	0.03	–	1.3	1.7 (≈ 3.75 µM)	Cc1nsc(N2C[C@H]3CC[C@@H](C2)[C@@H]3Nc2nc3c(OCCC(F)(F)F)cccn3n2)n1	–
0.06 to 0.101	21	4 to 6.4	150	3.17	0.028	9 nM	1.3	198 (≈ 451 µM)	Cc1nsc(N2C[C@H]3CC[C@@H](C2)[C@@H]3Nc2nc3c(OCC(F)(F)F)cccn3n2)n1	remaining Abeta42 level (% of control) (Mus musculus [9]): 33%; IC50 (Keratinocyte): 443000 nM; selectivity ratio [10]: 1.1; IC50 [11]: > 10000 nM; IC20 (hERG (KCNH2)): 4500 nM; fIC50 [12]: 12 nM; PB [13]: 30 pmol; selectivity ratio [14]: 1.1; fIC50 (Mus musculus [15]): 5 nM; Activity (Mus musculus [16]): 59%; IC50 (Melanocyte): 443000 nM; remaining Abeta42 level (% of control) (Mus musculus [17]): 15%
–	49	–	–	2.26	–	–	–	456 (≈ 1070 µM)	Cc1nsc(N2C[C@H]3CC[C@@H](C2)[C@@H]3Nc2nc3c(OCC4COC4)cccn3n2)n1	–
–	108	–	–	2.68	–	–	–	346 (≈ 791 µM)	Cc1nnc(N2C[C@H]3CC[C@@H](C2)[C@@H]3Nc2nc3c(OC(C)C(F)(F)F)cccn3n2)o1 (stereo not given in full)	–
0.032	7	34	–	4.1	0.02	3 nM	4	11 (≈ 23.3 µM)	Cc1cc(N2C[C@H]3CC[C@@H](C2)[C@@H]3Nc2nc3c(OCC(F)(F)C(F)(F)F)cccn3n2)on1	–
0.034	6	36	85	3.81	0.01	–	3.1	6.3 (≈ 13.9 µM)	Cc1cc(N2C[C@H]3CC[C@@H](C2)[C@@H]3Nc2nc3c(O[C@@H](C)C(F)(F)F)cccn3n2)sn1	–
0.031	33	8.5	> 40000	3.79	0.017	20 nM and 12 nM	1	55 (≈ 112 µM)	Cc1noc(N2C[C@H]3CC[C@@H](C2)[C@@H]3Nc2nc3c(OCC(F)(F)F)ccc(C(F)(F)F)n3n2)n1	IC50 (Keratinocyte): 33000 nM; IC50 [11]: 8750 nM; IC20 (hERG (KCNH2)): 3500 nM; Activity [18]: Non-Toxic; fIC50 [12]: 21 nM; fraction unbound [19]: 0.046; Activity [20]: Non-Toxic; solubility [21]: 12 µg/mL (≈ 24.4 µM); solubility [22]: 92 µg/mL (≈ 187 µM); hepatocyte CLint [23]: 6.9 µL/min/1e6 cells; IC50 (Melanocyte): 33000 nM; Therm solubility [24]: 5 µg/mL
–	61	–	–	3.3	–	–	–	102 (≈ 240 µM)	Cc1nsc(N2C[C@H]3CC[C@@H](C2)[C@@H]3Nc2nc3c(OC(F)(F)F)cccn3n2)n1	–
–	14	–	–	3.76 to 3.9	–	–	–	0.2 to 1 (≈ 0.428 to 2.14 µM)	Cc1nsc(N2C[C@H]3CC[C@@H](C2)[C@@H]3Nc2nc3c(OCCCC(F)(F)F)cccn3n2)n1	–
0.06	16	10	–	3.69	0.028	–	3.1	78 (≈ 172 µM)	Cc1nsc(N2C[C@H]3CC[C@@H](C2)[C@@H]3Nc2nc3c(O[C@@H](C)C(F)(F)F)cccn3n2)n1	–
–	2	19	40000 to 100000	4.1	0.002	2 nM	2	0.6 (≈ 1.18 µM)	Cc1cc(N2C[C@H]3CC[C@@H](C2)[C@@H]3Nc2nc3c(OCC(F)(F)F)ccc(C(F)(F)F)n3n2)sn1	–
0.061	20	11	–	3.57	0.055	17 nM	1	144 (≈ 304 µM)	Cc1noc(N2C[C@H]3CC[C@@H](C2)[C@@H]3Nc2nc3c(OCC(F)(F)C(F)(F)F)cccn3n2)n1	–
–	–	–	–	–	–	–	–	–	O=S(=O)(N[C@H]1CC[C@@](c2cc(F)ccc2F)(S(=O)(=O)c2ccc(Cl)cc2)CC1)C(F)(F)F	remaining Abeta42 level (% of control) (Mus musculus [17]): 24 - 28%
